This passage reports MIC results from ChEMBL document CHEMBL1933046, “Synthesis and antibacterial activity of a novel series of acylides active against community acquired respiratory pathogens” (2012).

Assay type in all cases: functional
One experiment relates to Streptococcus pyogenes. In words: Antibacterial activity against Streptococcus pyogenes 19615 by NCCLS method.
The test system of experiment [1] is Streptococcus pneumoniae. The experiment can be described thus: Antibacterial activity against Streptococcus pneumoniae 3579 expressing erm gene by NCCLS method.
Experiment [2] relates to Streptococcus pneumoniae. The experiment can be described thus: Antibacterial activity against Streptococcus pneumoniae 994 expressing mef gene by NCCLS method.
The subject of the next experiment is Moraxella catarrhalis. In words: Antibacterial activity against Moraxella catarrhalis 8176 by NCCLS method.
The next experiment concerns Haemophilus influenzae. The experiment can be described thus: Antibacterial activity against Haemophilus influenzae 38 by NCCLS method.
Experiment [3] deals with Streptococcus pneumoniae. The experiment can be described thus: Antibacterial activity against Streptococcus pneumoniae 6303 by NCCLS method.
Experiment [4] deals with Streptococcus pneumoniae. The experiment can be described thus: Antibacterial activity against Streptococcus pneumoniae 49619 by NCCLS method.

≈ marks a conversion by molar mass, not a printed value. Bounds are passed on as bounds.

`C=CCN(C)[C@H]1C[C@@H](C)O[C@@H](O[C@@H]2[C@@H](C)[C@H](OC(=O)Cc3ccccn3)[C@@H](C)C(=O)O[C@H](CC)[C@@]3(C)OC(=O)N(CCCCn4cnc5c(N)ncnc54)[C@@H]3[C@@H](C)C(=O)[C@H](C)C[C@@]2(C)OC)[C@@H]1O`: the MIC turned out to be 0.03 µg/mL (≈ 0.0316 µM) in the experiment on Streptococcus pyogenes; 0.5 µg/mL (≈ 0.527 µM) against Streptococcus pneumoniae [1]; 0.125 µg/mL (≈ 0.132 µM) against Streptococcus pneumoniae [2]; 0.125 µg/mL (≈ 0.132 µM) against Moraxella catarrhalis; 0.125 µg/mL (≈ 0.132 µM) against Haemophilus influenzae; 0.125 µg/mL (≈ 0.132 µM) against Streptococcus pneumoniae [3]. Moreover, in the experiment on Streptococcus pneumoniae [4], the MIC is 0.06 µg/mL (≈ 0.0632 µM).
For `C=CCN(C)[C@H]1C[C@@H](C)O[C@@H](O[C@@H]2[C@@H](C)[C@H](OC(=O)Cc3ccccn3)[C@@H](C)C(=O)O[C@H](CC)[C@@]3(C)OC(=O)N(CCCCn4cnc(-c5ccccc5)c4)[C@@H]3[C@@H](C)C(=O)[C@H](C)C[C@@]2(C)OC)[C@@H]1O`, the MIC in the experiment with Streptococcus pyogenes is 0.03 µg/mL (≈ 0.0313 µM); against Streptococcus pneumoniae [1] it was 0.5 µg/mL (≈ 0.522 µM); with Streptococcus pneumoniae [2] it was 0.25 µg/mL (≈ 0.261 µM); with Moraxella catarrhalis it was 0.25 µg/mL (≈ 0.261 µM); against Haemophilus influenzae, < 0.06 µg/mL; with Streptococcus pneumoniae [3], 0.06 µg/mL (≈ 0.0626 µM). Besides, in the experiment on Streptococcus pneumoniae [4], the MIC was 0.03 µg/mL (≈ 0.0313 µM).
In the case of `C=CCN(C)[C@H]1C[C@@H](C)O[C@@H](O[C@@H]2[C@@H](C)[C@H](OC(=O)Cc3ccccn3)[C@@H](C)C(=O)O[C@H](CC)[C@@]3(C)OC(=O)N(CCCCn4cnc5cncnc54)[C@@H]3[C@@H](C)C(=O)[C@H](C)C[C@@]2(C)OC)[C@@H]1O`, the MIC in the experiment on Streptococcus pyogenes is 0.06 µg/mL (≈ 0.0642 µM); against Streptococcus pneumoniae [1] it was 0.25 µg/mL (≈ 0.268 µM); in the experiment with Streptococcus pneumoniae [2], 0.125 µg/mL (≈ 0.134 µM); in the experiment on Moraxella catarrhalis, 0.125 µg/mL (≈ 0.134 µM); against Haemophilus influenzae it was < 0.06 µg/mL; with Streptococcus pneumoniae [3], 0.06 µg/mL (≈ 0.0642 µM). The MIC in the experiment with Streptococcus pneumoniae [4] amounted to 0.06 µg/mL (≈ 0.0642 µM).
Consider `C=CCN(C)[C@H]1C[C@@H](C)O[C@@H](O[C@@H]2[C@@H](C)[C@H](OC(=O)Cc3cccnc3)[C@@H](C)C(=O)O[C@H](CC)[C@@]3(C)OC(=O)N(CCCCn4ccc5cccnc54)[C@@H]3[C@@H](C)C(=O)[C@H](C)C[C@@]2(C)OC)[C@@H]1O`, for which the MIC was 0.03 µg/mL (≈ 0.0322 µM) in the experiment on Streptococcus pyogenes; 8 µg/mL (≈ 8.58 µM) in the experiment with Streptococcus pneumoniae [1]; 0.25 µg/mL (≈ 0.268 µM) in the experiment on Streptococcus pneumoniae [2]; 0.06 µg/mL (≈ 0.0644 µM) in the experiment with Moraxella catarrhalis; < 0.03 µg/mL in the experiment with Haemophilus influenzae; 0.06 µg/mL (≈ 0.0644 µM) against Streptococcus pneumoniae [3]. This compound gave an MIC against Streptococcus pneumoniae [4] of 0.06 µg/mL (≈ 0.0644 µM).
Regarding `C=CCN(C)[C@H]1C[C@@H](C)O[C@@H](O[C@@H]2[C@@H](C)[C@H](OC(=O)Cc3cccnc3)[C@@H](C)C(=O)O[C@H](CC)[C@@]3(C)OC(=O)N(CCCCn4cnc(-c5cccnc5)c4)[C@@H]3[C@@H](C)C(=O)[C@H](C)C[C@@]2(C)OC)[C@@H]1O`, the MIC turned out to be 0.06 µg/mL (≈ 0.0626 µM) in the experiment on Streptococcus pyogenes; 1 µg/mL (≈ 1.04 µM) against Streptococcus pneumoniae [1]; 0.125 µg/mL (≈ 0.13 µM) in the experiment on Streptococcus pneumoniae [2]; 0.25 µg/mL (≈ 0.261 µM) against Moraxella catarrhalis; 0.125 µg/mL (≈ 0.13 µM) in the experiment on Haemophilus influenzae; 0.03 µg/mL (≈ 0.0313 µM) in the experiment on Streptococcus pneumoniae [3]. For the same compound, the MIC against Streptococcus pneumoniae [4] was 0.03 µg/mL (≈ 0.0313 µM).
Turning to `C=CCN(C)[C@H]1C[C@@H](C)O[C@@H](O[C@@H]2[C@@H](C)[C@H](OC(=O)Cc3cccnc3)[C@@H](C)C(=O)O[C@H](CC)[C@@]3(C)OC(=O)N(CCCCn4cnc(-c5ccc(N)nc5)c4)[C@@H]3[C@@H](C)C(=O)[C@H](C)C[C@@]2(C)OC)[C@@H]1O`, the MIC was found to be 0.06 µg/mL (≈ 0.0616 µM) in the experiment on Streptococcus pyogenes; 0.125 µg/mL (≈ 0.128 µM) against Streptococcus pneumoniae [1]; 0.06 µg/mL (≈ 0.0616 µM) against Streptococcus pneumoniae [2]; 0.125 µg/mL (≈ 0.128 µM) in the experiment with Moraxella catarrhalis; 0.125 µg/mL (≈ 0.128 µM) with Haemophilus influenzae; 0.06 µg/mL (≈ 0.0616 µM) in the experiment on Streptococcus pneumoniae [3]. This compound also gave an MIC with Streptococcus pneumoniae [4] of 0.125 µg/mL (≈ 0.128 µM).
Take `C=CCN(C)[C@H]1C[C@@H](C)O[C@@H](O[C@@H]2[C@@H](C)[C@H](OC(=O)Cc3ccccn3)[C@@H](C)C(=O)O[C@H](CC)[C@@]3(C)OC(=O)N(CCCCn4cnc5cnccc54)[C@@H]3[C@@H](C)C(=O)[C@H](C)C[C@@]2(C)OC)[C@@H]1O`: the MIC in the experiment on Streptococcus pyogenes is 0.03 µg/mL (≈ 0.0321 µM); in the experiment on Streptococcus pneumoniae [1] it was 0.25 µg/mL (≈ 0.268 µM); in the experiment with Streptococcus pneumoniae [2], 0.25 µg/mL (≈ 0.268 µM); with Moraxella catarrhalis, 0.06 µg/mL (≈ 0.0643 µM); in the experiment on Haemophilus influenzae it was < 0.06 µg/mL; in the experiment on Streptococcus pneumoniae [3], 0.06 µg/mL (≈ 0.0643 µM). In addition, the MIC in the experiment on Streptococcus pneumoniae [4] was found to be 0.03 µg/mL (≈ 0.0321 µM).
